Experimental data as given in PubChem BioAssay AID743413 (Broad Institute, 2014).
Active and inactive are the calls of the source.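 The calls were made as follows: active = compounds lowering cell ATP signal with a fitted AC50 at or below twice their top tested dose; inconclusive = flat curve between 30% and 70% loss, or poor fit; inactive = the rest.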

Key:
[1] = system: A549 viability, CellTiter-Glo ATP luminescence, 72 h; test: toxicity toward A549 lung cells – cell-based, plate reader, dry powder, set 11, cytotoxicity control, dose response (AID 743413)
[2] = as above; settings: A549 viability, CellTiter-Glo ATP luminescence, 72 h

In the case of `Cc1ccc(CNC(=O)CSc2c3c(nc4ccc(Cl)cc24)CCCC3)cc1`, the AC50 [1] is reported as > 52 µM (inactive).

For `COCCN(Cc1ccco1)C(=O)CSc1c2c(nc3cc(Cl)ccc13)CCCC2`, the activity change, negative = cytotoxicity ([2]; at 12 µM (top of the series)) was -3.68% (inactive).

In the case of `COc1ccc(NC(=O)CSc2c3c(nc4ccc(Cl)cc24)CCCC3)cc1`, the AC50 [1] is reported as > 52 µM (inactive).

With `COc1ccc(N(Cc2cccs2)C(=O)COc2ccccc2C(=O)Nc2ccccc2)cc1` the activity change, negative = cytotoxicity ([2]; at 26 µM (top of the series)) was -14% (inactive).

For `Cc1cccc(CCNC(=O)CSc2c3c(nc4ccc(Cl)cc24)CCCC3)c1`, the AC50 [1] was > 52 µM (inactive).

In the case of `O=C(CSc1c2c(nc3ccc(Cl)cc13)CCCC2)N1CCNC1=O`, the activity change, negative = cytotoxicity ([2]; at 26 µM (top of the series)) is reported as -13.8% (inactive).

In the case of `COC(=O)CCCN(C)C(=O)c1ccc(OCC(=O)Nc2cccc(OC)c2)cc1`, the activity change, negative = cytotoxicity ([2]; at 26 µM (top of the series)) is reported as -0.651% (inactive).

For `CN(C(=O)COc1ccccc1C(N)=O)c1ccccc1`, the activity change, negative = cytotoxicity ([2]; at 26 µM (top of the series)) was -1.13% (inactive).

For `CN(CCNC(=O)CSc1c2c(nc3ccc(Cl)cc13)CCCC2)Cc1ccccc1`, the activity change, negative = cytotoxicity ([2]; at 26 µM (top of the series)) was -8.03% (inactive).

With `COc1ccc(CNC(=O)CSc2c3c(nc4ccc(Cl)cc24)CCCC3)cc1` the AC50 [1] was > 52 µM (inactive).

For `O=C(O)CSc1c2c(nc3cc(C(=O)NCc4cccs4)ccc13)CCCC2`, the activity change, negative = cytotoxicity ([2]; at 26 µM (top of the series)) was -2.24% (inactive).

In the case of `CCOC(=O)C1CCN(C(=O)c2ccc(OCC(=O)N3CCOCC3)c(OC)c2)CC1`, the activity change, negative = cytotoxicity ([2]; at 26 µM (top of the series)) is reported as -3.29% (inactive).

For `CN(CCOc1ccccc1)C(=O)c1ccc(OCC(=O)Nc2cccc(C(F)(F)F)c2)cc1`, the activity change, negative = cytotoxicity ([2]; at 26 µM (top of the series)) was 0.912% (inactive).

For `O=C(CSc1cccc2cccnc12)NCc1ccco1`, the activity change, negative = cytotoxicity ([2]; at 26 µM (top of the series)) was -1.12% (inactive).

In the case of `Cc1ccc(NC(=O)COc2ccccc2C(=O)NCCN(C)C)cc1`, the activity change, negative = cytotoxicity ([2]; at 26 µM (top of the series)) is reported as -4.77% (inactive).

With `O=C(COc1ccc(C(=O)NCC2CCCO2)cc1)Nc1cccc(C(F)(F)F)c1` (stereo unspecified) the activity change, negative = cytotoxicity ([2]; at 26 µM (top of the series)) was 1.08% (inactive).

With `O=C(CSc1c2c(nc3ccc(Cl)cc13)CCCC2)Nc1ccccc1` the AC50 [1] was > 52 µM (inactive).

For `Cn1cc(SCC(=O)NCc2ccco2)c2ccccc21`, the activity change, negative = cytotoxicity ([2]; at 26 µM (top of the series)) was -0.441% (inactive).

With `CCOc1ccc(NC(=O)COc2ccc(C(=O)N3CCC(C(N)=O)CC3)cc2OC)cc1` the activity change, negative = cytotoxicity ([2]; at 26 µM (top of the series)) was -3.38% (inactive).

With `O=C(COc1ccc(C(=O)N2CCC2)cc1)Nc1cccc(C(F)(F)F)c1` the activity change, negative = cytotoxicity ([2]; at 26 µM (top of the series)) was 2.9% (inactive).

With `O=C(COc1ccccc1C(=O)NCCOc1ccc(Cl)cc1)Nc1cccc(Cl)c1` the activity change, negative = cytotoxicity ([2]; at 26 µM (top of the series)) was -15.3% (inactive).

Compound `O=C(CSc1c2c(nc3ccc(Cl)cc13)CCCC2)N1CCC(N2CCCCC2)CC1` has an AC50 [1] of 26.6 µM.

In the case of `CC1(C)CC(NC(=O)c2ccc(OCC(=O)Nc3cccc(C(F)(F)F)c3)cc2)CC(C)(C)N1`, the activity change, negative = cytotoxicity ([2]; at 26 µM (top of the series)) is reported as -14.3% (inactive).

With `COc1cc(C(=O)NCCCN(C)C)ccc1OCC(=O)Nc1cccc(C(F)(F)F)c1` the activity change, negative = cytotoxicity ([2]; at 26 µM (top of the series)) was -6.69% (inactive).

For `CCCCOc1ccc(NC(=O)COc2ccccc2C(=O)NCCOc2ccccc2)cc1`, the activity change, negative = cytotoxicity ([2]; at 26 µM (top of the series)) was -9.94% (inactive).

For `O=C(COc1ccc(C(=O)N2CCN(C(=O)C3CC3)CC2)cc1)Nc1cccc(C(F)(F)F)c1`, the activity change, negative = cytotoxicity ([2]; at 26 µM (top of the series)) was -1.09% (inactive).

For `Cn1c(=O)cc(SCC(=O)NCc2ccco2)c2ccccc21`, the activity change, negative = cytotoxicity ([2]; at 26 µM (top of the series)) was 5.32% (inactive).

With `COc1cc(CNCCCN2CCOCC2)ccc1OCC(=O)Nc1cccc(C(F)(F)F)c1` the activity change, negative = cytotoxicity ([2]; at 12 µM (top of the series)) was 7.4% (inactive).

With `CN(C(=O)COc1ccc(Cl)cc1C(N)=O)c1ccccc1` the activity change, negative = cytotoxicity ([2]; at 26 µM (top of the series)) was 2.07% (inactive).

With `O=C(CSc1c2c(nc3ccc(Cl)cc13)CCCC2)N1CCCCC1` the AC50 [1] was > 52 µM (inactive).

With `NC(=O)C1CCN(C(=O)c2ccc(OCC(=O)Nc3cccc(C(F)(F)F)c3)cc2)CC1` the activity change, negative = cytotoxicity ([2]; at 26 µM (top of the series)) was 8.43% (inactive).

With `O=C(CSc1c2c(nc3ccc(Cl)cc13)CCCC2)NC1CCCC1` the activity change, negative = cytotoxicity ([2]; at 26 µM (top of the series)) was -25.2% (inactive).

With `O=C(CSc1c2c(nc3ccc(Cl)cc13)CCCC2)NCc1ccc2c(c1)OCO2` the AC50 [1] was > 52 µM (inactive).

In the case of `CCN(CC)C(=O)CSc1c2c(nc3ccc(Cl)cc13)CCCC2`, the activity change, negative = cytotoxicity ([2]; at 26 µM (top of the series)) is reported as -10.9% (inactive).

With `O=C(CSc1c2c(nc3ccc(Cl)cc13)CCCC2)NCC1(c2ccccc2)CCCC1` the activity change, negative = cytotoxicity ([2]; at 26 µM (top of the series)) was -1.8% (inactive).

With `CCOC(=O)C1CCN(C(=O)c2ccc(OCC(=O)Nc3ccc(OCC)cc3)c(OC)c2)CC1` the activity change, negative = cytotoxicity ([2]; at 26 µM (top of the series)) was 5.86% (inactive).

With `COc1ccc(OCCNC(=O)c2ccccc2OCC(=O)Nc2ccc(NC(C)=O)cc2)cc1` the activity change, negative = cytotoxicity ([2]; at 26 µM (top of the series)) was -14.7% (inactive).

For `O=C(CSc1ccc2ccccc2n1)NCc1ccco1`, the activity change, negative = cytotoxicity ([2]; at 26 µM (top of the series)) was -6.75% (inactive).

With `O=C(COc1ccccc1C(=O)NCc1ccccc1)Nc1ccccc1` the activity change, negative = cytotoxicity ([2]; at 26 µM (top of the series)) was -5.99% (inactive).

With `CN(C(=O)COc1ccccc1C(=O)Nc1ccccc1)c1ccccc1` the activity change, negative = cytotoxicity ([2]; at 26 µM (top of the series)) was -12% (inactive).

`O=C(CSc1c2c(nc3ccc(Cl)cc13)CCCC2)NCCN1CCN(Cc2ccccc2)CC1` showed an AC50 [1] of 26.7 µM.

For `CC(Sc1c2c(nc3ccc(Cl)cc13)CCCC2)C(=O)NCc1ccco1` (stereo unspecified), the activity change, negative = cytotoxicity ([2]; at 26 µM (top of the series)) was -8.08% (inactive).

With `CCOC(=O)N1CCC(NC(=O)CSc2c3c(nc4ccc(Cl)cc24)CCCC3)CC1` the activity change, negative = cytotoxicity ([2]; at 26 µM (top of the series)) was -13.1% (inactive).

With `O=C(CSc1c2c(nc3ccc(Cl)cc13)CCCC2)NCCCc1ccccc1` the AC50 [1] was > 52 µM (inactive).

With `Cc1ccc2nc(Cl)cc(SCC(=O)NCc3ccco3)c2c1` the activity change, negative = cytotoxicity ([2]; at 26 µM (top of the series)) was -7.2% (inactive).

With `CN(C)c1ccc(NC(=O)COc2ccccc2C(=O)N2CCOCC2)cc1` the activity change, negative = cytotoxicity ([2]; at 26 µM (top of the series)) was -1.46% (inactive).

For `O=C(COc1ccc(C(=O)NC2CCCCC2)cc1)Nc1cccc(C(F)(F)F)c1`, the activity change, negative = cytotoxicity ([2]; at 26 µM (top of the series)) was -0.017% (inactive).

For `O=C(CSc1c2c(nc3cc(Cl)ccc13)CCCC2)N(Cc1ccco1)C1CCCC1`, the AC50 [1] was > 52 µM (inactive).

In the case of `CCN1CCCC1CNC(=O)CSc1c2c(nc3ccc(Cl)cc13)CCCC2` (stereo unspecified), the AC50 [1] is reported as 16.2 µM.

With `O=C(CSc1c2c(nc3ccc(Cl)cc13)CCCC2)NCc1cccs1` the AC50 [1] was > 52 µM (inactive).

For `O=C(CSc1c2c(nc3ccc(Cl)cc13)CCCC2)NC1CC1`, the AC50 [1] was > 52 µM (inactive).
